In patent US20230000852A1, “Treatment of Dermal Cytokine Storm Syndromes” (Bridge Pharma, Inc., priority 2021, published 2023):
Where a name gives a salt, the structure may show the parent alone.

Experiments:
IL-10 = assay: PHA-induced IL-10 release from human leucocytes (buffy coats); type: cell-based; details: Leucocyte, 10 uM, 30 min pre-incubation, PHA 5 μg/ml 16 hours
Protocol: (§1) The objective of this study was to assess the ability of norketotifen to inhibit cytokine release from stimulated human leucocytes.
(§2) The study was conducted in two phases. The first phase included optimization of the test methodology and including dose-range finding studies, using buffy coats from 3 human donors, stimulated with phytohemagglutinin (PHA). Following optimization of the test conditions, a final protocol was issued. In the ensuing Main Study, white blood cells (buffy coats) from 5 healthy human donors were stimulated with PHA, 5 μg/ml. The concentrations of the test article and the duration of exposure were optimized to obtain acceptable dose-response ratios. Thus, the inhibitory effects of three concentrations of NK and one concentration of ketotifen were evaluated in the Main Study. The buffy coats containing white blood cells from 5 male human donors were resuspended in assay media and were pre-incubated for 30 min with either vehicle/saline, ketotifen 4.3 μg/ml (10 μM) and norketotifen 0.4 μg/ml, 4.1 μg/ml and 41 μg/ml (1.0; 10 and 100 μM). Following these preincubations, the white blood cells were stimulated for 16 hours with PHA, 5 μg/ml. The cell system supernatants were then harvested and stored frozen pending analyses.
(§3) The concentration of the test articles had to be high in this ex vivo study since the test kit used a high concentration of the agonist PHA (5 μg/ml) and a long exposure time (16 hrs).

[1] = test system: human leucocytes (buffy coats); assay: Cytokine and chemokine release from stimulated human leucocytes, overall; type: cell-based; details: PHA 5 μg/ml, 16 hours
Protocol: as §1
as §2, with “analyses. […]” for “analyses.”

INF-γ = assay: PHA-induced INF-γ release from human leucocytes (buffy coats); type: cell-based; details: Leucocyte, 10 uM, 30 min pre-incubation, PHA 5 μg/ml 16 hours
Protocol: as §1, §2, §3

IL-13 = assay: PHA-induced IL-13 release from human leucocytes (buffy coats); type: cell-based; details: Leucocyte, 10 uM, 30 min pre-incubation, PHA 5 μg/ml 16 hours
Protocol: as §1, §2, §3

IL-6 = assay: PHA-induced IL-6 release from human leucocytes (buffy coats); type: cell-based; details: Leucocyte, 10 uM, 30 min pre-incubation, PHA 5 μg/ml 16 hours
Protocol: as §1, §2, §3

IL-4 = assay: PHA-induced IL-4 release from human leucocytes (buffy coats); type: cell-based; details: Leucocyte, 10 uM, 30 min pre-incubation, PHA 5 μg/ml 16 hours
Protocol: as §1, §2, §3

IL-2 = assay: PHA-induced IL-2 release from human leucocytes (buffy coats); type: cell-based; details: Leucocyte, 10 uM, 30 min pre-incubation, PHA 5 μg/ml 16 hours
Protocol: as §1, §2, §3

TNFα = assay: PHA-induced TNFα release from human leucocytes (buffy coats); type: cell-based; details: Leucocyte, 10 uM, 30 min pre-incubation, PHA 5 μg/ml 16 hours
Protocol: as §1, §2, §3

IL-8 = assay: PHA-induced IL-8 release from human leucocytes (buffy coats); type: cell-based; details: Leucocyte, 10 uM, 30 min pre-incubation, PHA 5 μg/ml 16 hours
Protocol: as §1, §2, §3

IL-1β = assay: PHA-induced IL-1β release from human leucocytes (buffy coats); type: cell-based; details: Leucocyte, 10 uM, 30 min pre-incubation, PHA 5 μg/ml 16 hours
Protocol: as §1, §2, §3

[2] = test system: shaved skin of Gottingen minipigs; assay: Skin irritation study in Göttingen mini pigs; type: in vivo, Göttingen minipigs; details: dermal once daily for four consecutive days
Protocol: To assess possible skin irritation following repeated dermal application of racemic norketotifen as a hydrogen fumarate salt (NK-HF) to Gottingen Minipigs.
Standard creamy polyethylene-glycol (PEG400/PEG4000; herein called PEG) formulations containing 0% (vehicle control), 5% or 10% of RS-norketotifen hydrogen fumarate (NK-HF) were prepared and applied once daily for four consecutive days to three marked areas (3 inches×3 inches) of the shaved skin of Gottingen minipigs pigs (2M+2F, 7-8 months; 9.7-11.6 kg). The volumes used for each application were 3.5 mL). Four animals were used in this study. The number of animals was intended to satisfy regulatory guidelines, to meet general scientific principles and to meet Bridge Pharma's animal-sparing commitments. The vehicle and the test articles were applied once daily for four consecutive days, and erythema (redness), edema (swelling) and eschar (scab) were assessed by the Study Director, who personally assessed and scored the appearance of the skin before the daily cream applications and four hours thereafter on Days 1 through 4. Additional inspections and scorings were performed on Day 5, twenty-four hours after the last (Day 4) applications of the vehicle and test articles.

[3] = test system: IL31-induced (SC) pruritus; assay: IL-31-induced pruritus in mice; type: in vivo; details: for Pruritic Bouts Mean ± SEM: 10 mg/kg oral 60 minutes before murine IL31 1.0 μg/30 gram SC, counted for 120 min, N 8; for Protection: 10 mg/kg oral 60 minutes before murine IL31 SC, vs vehicle
Protocol: To determine if NK inhibits IL31-induced pruritus in mice. Studies have now been performed, using murine IL31 as a pruritogen. Mice were dosed orally with a test article exactly 60 minutes before murine IL31 at a dose of 1.0 μg/30 gram body weight was injected subcutaneously into a previously depilated area on the rostral part of the back of mice. IL31 was dissolved in phosphate buffered saline (PBS) with 0.1% bovine serum albumin (BSA). The injected volume was 0.1 ml/mouse. The bouts of scratching were counted for 120 min, starting 30 min after the injection of IL31. The bouts of scratching were counted by trained laboratory personnel who were unaware of the pretreatment of the animals. Oclacitinib (Apoquel®) is a Janus kinase inhibitor that is the worldwide market leader for oral treatment of atopic dermatitis in dogs.

[4] = Dermal and plasma concentrations of NK after oral dosing to dogs; type: in vivo; details: for AUC∞ Plasma / MRT Plasma / T1/2 Plasma / AUC∞ Skin / MRT Skin / T1/2 Skin: oral S-NK 8.0 mg/kg/day for 28 days, dogs (N = 5)
Protocol: The purpose was to determine drug concentrations and calculate pharmacokinetics in the skin and plasma of dogs during and following daily oral administration of S-NK-HF (the S-isomer of norketotifen hydrogen fumarate) for four weeks.
Five male beagle dogs, weighing 11.2-13.9 kg (2-4 years old) were included in the study. All animals were administered p.o. doses of the test article 8.0 mg/kg/day as a hydrogen fumarate salt, equal to 5.6 mg/kg/day of the free base. A single isomer of NK was used, since an objective of this study was also to assess the racemization of the NK isomers. The animals were dosed once daily for four weeks followed by daily observations and tissue sampling for an additional two-week washout period.
Multiple plasma samples and skin biopsies were taken from each dog on Day 1 and Day 28 of drug administration. The plasma and skin samplings were performed at pre-dose, and at 2, 6, 12, and 24 hours post-dose. Plasma and skin samples were also taken intermittently at predetermined intervals during the 28-days dosing period and up to the last day of the study, which was Day 42. Blood samples were taken from v. cephalica antebrachii. Skin biopsies were taken from the area between the mid ventral to lateral abdominal areas, using a 6 mm skin biopsy punch. Subcutaneous fat deposits were carefully trimmed from the skin samples and the skin samples were then weighed. All plasma and skin samples were analyzed using LC/MS/MS methodology.

Row | SMILES | Pruritic Bouts Mean ± SEM [3] | Protection [3] | AUC∞ Plasma [4] | MRT Plasma [4] | T1/2 Plasma [4] | AUC∞ Skin [4] | MRT Skin [4] | T1/2 Skin [4] | also measured
1 | CN1CCC(=C2c3ccccc3CC(=O)c3sccc32)CC1 [Ketotifen, ketotifen, reference compound] | – | – | – | – | – | – | – | – | inhibition at 10 µM (IL-10): 0%; Inhibition of release of cytokines and chemokines from human white blood cells (in words) [1]: No statistically significant inhibition; inhibition at 10 µM (INF-γ): 0%; inhibition at 10 µM (IL-13): 0%; inhibition at 10 µM (IL-6): 0%; inhibition at 10 µM (IL-4): 0%; inhibition at 10 µM (IL-2): 0%; inhibition at 10 µM (TNFα): 0%; inhibition at 10 µM (IL-8): 20%; inhibition at 10 µM (IL-1β): 0%
2 | O=C(O)C=CC(=O)O.O=C1Cc2ccccc2C(=C2CCNCC2)c2ccsc21 [NK-HF, RS-norketotifen hydrogen fumarate] | 93 ± 10 | 54% | – | – | – | – | – | – | Skin irritation (erythema, edema, eschar) ([2]; 5% in creamy PEG formulation): did not induce any irritation; Skin irritation (erythema, edema, eschar) ([2]; 10% in creamy PEG formulation): did not induce any irritation
3 | CNS(=O)(=O)C[C@H]1CC[C@H](N(C)c2ncnc3[nH]ccc23)CC1 [Oclacitinib maleate, Oclacitinib, reference compound] | 116 ± 29 | 43% | – | – | – | – | – | – | –
4 | O=C(O)/C=C/C(=O)O.O=C1Cc2ccccc2C(=C2CCNCC2)c2ccsc21 [R-NK, R-norketotifen] | – | – | 1658 ng*hr/mL or g | 14.1 h | 7.7 h | 20376 ng*hr/mL or g | 159.1 h | 157.0 h | –
5 | O=C1Cc2ccccc2C(=C2CCNCC2)c2ccsc21 [S-NK, S-norketotifen] | – | – | 1627 ng*hr/mL or g | 11.3 h | 10.9 h | 25710 ng*hr/mL or g | 159.0 h | 162.7 h | Racemization after oral administration of the single isomer ([4]; dogs, oral): RS-norketotifen was rapidly formed
